Experimental data reported in patent US11213512B2, “Bis-amino acid based compound and use thereof” (THE CURATORS OF THE UNIVERSITY OF MISSOURI, priority 2016, dated 2022).

Experiments:
HeLa cells = assay: Cytotoxicity to mammalian cells, XTT assay; format: cell-based, human; conditions: 24 h; for cytotoxicity to HeLa (in words): at MIC against Tet^R E. coli (2: 48, 7: 128, 10: 10 μM); for survival of HeLa (in words): two-fold increase over MIC concentration
Procedure: (§1) It was initially hypothesized that antimicrobial activity resulted from membrane disruption. Membrane active compounds are often cytotoxic to mammalian cells (Shai, Biopolymers 2002, 66, 236-48; Shai, et al., Curr. Protein Pept. Sci. 2006, 7, 479-86). The survival of three mammalian epithelial cell lines was assayed for 2, 3, 5, and 10. […] The cell lines studied were human embryonic kidney (HEK-293), human cervix epithelial (HeLa, ATCC Accession No. CCL-2), and Cercopithecus aethiops kidney (Cos-7, ATCC Accession No. CRL 1651). HeLa cells were acquired from ATCC. Cos-7 and HEK-293 cells were donated by colleagues. Cell lines were regularly maintained in growth media containing DMEM (ATCC), 10% fetal bovine serum (FBS, ATCC) and 1% penicillin-streptomycin solution (ATCC). Adherent HEK-293, HeLa and Cos-7 cells were trypsinized using 0.25% (w/v) trypsin-EDTA (Sigma-Aldrich), suspended in a fresh media and diluted to get a concentration of 3×10^5 cells/ml. Cells were seeded in a 96-well plate (100 μL/well) to get 3×10^4 cells/well. The plates were incubated for 24 hours at 5% CO2 and 37° C. to reach a confluency of 80-90%.
(§2) In a sterile 1.5 mL micro-centrifuge tube, compounds 2, 3, 5, 6, 7 and 10 (0.5% DMSO) were mixed with assay media (DMEM+10% FBS) and serially diluted by 2-fold each to get 2[MIC], [MIC], ½[MIC] and ¼ [MIC] concentrations. A control containing 0.5% DMSO was also prepared. After 24 hours, the spent media in the 96-well plate containing HEK-293, HeLa and Cos-7 cells (90% confluency) was replaced with 100 μL media containing the compounds 2, 3, 5, 6, 7 and 10 at various concentrations. The cells were incubated at 37° C. and 5% CO2 for 24 hours before performing XTT assay (Sigma-Aldrich). The XTT assay was performed according to the manufacturer's protocol. After 24 hours of treatment with compounds, the media was replaced with PBS and 25 μL XTT was added to each well. The XTT assay works by the reduction of tetrazolium compound by alive cells to the colored soluble formazan product. The absorbance of the product was measured at 450 nm (XTT) and 690 nm (background). Percent survival was calculated by comparing the average absorbance of cells treated with compounds 2, 3, 5, 6, 7, and 10 to that of cells alone. Two replicates for each treatment were determined. Average percent survival and standard deviation were calculated.
(§3) Cells were cultured for 24 h in 96-well plates and treated with media containing concentrations using [MIC] and [MIC]×2 determined previously for Tet^R E. coli. The number of surviving cells was determined using an XTT assay (Sigma-Aldrich); the results are represented as percent survival in FIG. 2. Cells alone were used as controls and established 100% survival. The data represent two replicates of three trials and the error bars represent the standard deviation.

HEK-293 cells = assay: Cytotoxicity to mammalian cells, XTT assay; format: cell-based, human; conditions: 24 h; for cytotoxicity to HEK-293 (in words): at MIC against Tet^R E. coli (2: 48, 7: 128, 10: 10 μM); for survival of HEK-293 (in words): two-fold increase over MIC concentration
Procedure: as §1, §2, §3

[1] = at MIC against Tet^R E. coli (2: 48, 3: 28, 5: 56, 6: 120, 7: 128, 10: 10 μM)
[2] = at twice the MIC (FIG. 3 legend: 2: 96, 3: 56, 5: 112, 6: 240, 7: 256, 10: 20 μM)

| SMILES | melting point | cytotoxicity to HeLa (in words) (HeLa cells) | cytotoxicity to HEK-293 (in words) (HEK-293 cells) | percent survival HeLa (HeLa cells; [1]) [%] | percent survival HeLa (HeLa cells; [2]) [%] | percent survival HEK-293 (HEK-293 cells; [1]) [%] | percent survival HEK-293 (HEK-293 cells; [2]) [%] | survival of HeLa (in words) (HeLa cells) | survival of HEK-293 (in words) (HEK-293 cells) |
| --- | --- | --- | --- | --- | --- | --- | --- | --- | --- |
| Cl.Cl.N[C@@H](Cc1c[nH]c2ccccc12)C(=O)NCCCNC(=O)[C@@H](N)Cc1c[nH]c2ccccc12 [Compound 7, (2S,2′S)-1,1′-(Propane-1,3-diylbis(azanediyl))bis(3-(1H-indol-3-yl)-1-oxopropan-2-aminium) chloride] | 234 °C (dec.) | moderately toxic | minimally toxic |  |  |  |  |  |  |
| Cl.Cl.N[C@@H](Cc1c[nH]c2ccccc12)C(=O)Nc1ccc(NC(=O)[C@@H](N)Cc2c[nH]c3ccccc23)cc1 [Compound 6, (2S,2′S)-1,1′-(1,4-Phenylenebis(azanediyl))bis(3-(1H-indol-3-yl)-1-oxopropan-2-aminium) chloride] | 237 °C (dec.) |  |  | 100 | 29 | 100 | 61 |  |  |
| Cl.Cl.N[C@H](Cc1c[nH]c2ccccc12)C(=O)Nc1cccc(NC(=O)[C@H](N)Cc2c[nH]c3ccccc23)c1 [Compound 3, (2R,2′R)-1,1′-(1,3-Phenylenebis(azanediyl))bis(3-(1H-indol-3-yl)-1-oxopropan-2-aminium) chloride] | 242 °C (dec.) |  |  | 100 | 29 | 100 | 62 |  |  |
| Cl.Cl.N[C@@H](Cc1c[nH]c2ccccc12)C(=O)Nc1cccc(NC(=O)[C@@H](N)Cc2c[nH]c3ccccc23)c1 [Compound 2, (2S,2′S)-1,1′-(1,3-Phenylenebis(azanediyl))bis(3-(1H-indol-3-yl)-1-oxopropan-2-aminium) chloride] | 223 °C (dec.) | no cytotoxicity | no cytotoxicity | 100 |  | 100 |  | unaffected | unaffected |
| Cl.Cl.N[C@H](Cc1c[nH]c2ccccc12)C(=O)NCCCCCCCCCCCCNC(=O)[C@@H](N)Cc1c[nH]c2ccccc12 [Compound 10, (S)-1-((12-((R)-2-Ammonio-3-(1H-indol-3-yl)propanamido)dodecyl)amino)-3-(1H-indol-3-yl)-1-oxopropan-2-aminium chloride] | 158 °C (dec.) | moderately toxic | minimally toxic |  |  |  |  |  |  |
| Cl.Cl.N[C@@H](Cc1c[nH]c2ccccc12)C(=O)Nc1ccccc1NC(=O)[C@@H](N)Cc1c[nH]c2ccccc12 [Compound 5, (2S,2′S)-1,1′-(1,2-Phenylenebis(azanediyl))bis(3-(1H-indol-3-yl)-1-oxopropan-2-aminium) chloride] | 201 °C (dec.) |  |  | 100 |  | 100 |  | unaffected | unaffected |
